The results in this text go back to patent publication US20020137929A1, “1 - (3-heterocyclylphenyl) isothiourea, -isourea, -guanidine and -amidine herbicidal agents” (Intellectual Property Department, BASF Aktiengesellschaft, priority 1998, published 2002).

Assay [1] concerns CASOB (Sicklepod). As to the kind of experiment: Postemergence herbicidal evaluation. In kind it is in vivo, Cassia obtusifolia. Conditions: for herbicidal rating CASOB: postemergence. An outline of the steps:
(§1)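 Rate range approx. 0.0156–0.500 kg/ha. Foliar application at 40 psi to ~2-week seedlings; surfactant 0.5% TWEEN 20 in 50/50 acetone/water. Evaluation 4–5 wk post-treatment by 0–9 visual injury score, means of replicate tests.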

In assay [2] the test system is CHEAL (Lambsquarters, Common). As to the kind of experiment: Postemergence herbicidal evaluation. Conditions: for herbicidal rating CHEAL: postemergence. It counts as in vivo, Chenopodium album. An outline of the steps: as §1
Assay [3] concerns TRZAWR (Wheat, Winter, cv Riband). Kind of assay: Postemergence herbicidal evaluation. Conditions: for herbicidal rating TRZAWR: postemergence. In kind it is in vivo, Triticum aestivum. An outline of the steps: as §1
Assay [4] has as its system CHEAL (Lambsquarters, Common). As to the kind of experiment: Preemergence herbicidal evaluation. In kind it is in vivo, Chenopodium album. To be noted: rated 4-5 weeks after treatment. An outline of the steps:
(§2)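 In this greenhouse assay, monocot and dicot seeds are planted in soil and treated prior to emergence with an aqueous acetone spray (about 0.0156-0.500 kg/ha). Plants are assessed visually against control on a 0-9 scale after 4-5 weeks.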

In assay [5] the test system is ORYSAT (Rice, Tebonnet). Kind of assay: Preemergence herbicidal evaluation. It counts as in vivo, Oryza sativa, (L.) Tebonnet. Conditions: rated 4-5 weeks after treatment. The essentials:
as §2

The mark [6] stands for this setting: rate 0.0156 kg/ha, rating scale 0-9.
Setting [7] is: rate 0.0313 kg/ha, rating scale 0-9.
Setting [8] is: rate 0.0625 kg/ha, rating scale 0-9.
Where [9] appears, read: rate 0.1250 kg/ha, rating scale 0-9.
Where [10] appears, read: rate 0.2500 kg/ha, rating scale 0-9.

Consider `Cn1c(C(F)(F)F)cc(=O)n(-c2cc(N=C3SCC(=O)N3Cc3cccc(C(F)(F)F)c3)c(Cl)cc2F)c1=O` [Compound 142, 3-{4-Chloro-2-fluoro-5-{{3-[m-(trifluoromethyl)benzyl]-4-oxo-2-thiazolidinylidene}-amino}phenyl}-1-methyl-6-(trifluoromethyl)-2,4(1H,3H)-pyrimidinedione], for which the “herbicidal rating CASOB” value in assay [1] (rate 0.0156 kg/ha) was determined as 0.0; in assay [1] (rate 0.0313 kg/ha), 1.0; in assay [1] (rate 0.0625 kg/ha) it was 3.0. Further, the “herbicidal rating CHEAL” value in assay [2] (rate 0.0156 kg/ha) amounted to 4.0; in assay [2] (rate 0.0313 kg/ha) it was 9.0; in assay [2] (rate 0.0625 kg/ha), 9.0. The “herbicidal rating TRZAWR” value in assay [3] (rate 0.0156 kg/ha), in assay [3] (rate 0.0313 kg/ha) and in assay [3] (rate 0.0625 kg/ha) was 2.5 in each case. Also, the “Preemergence herbicidal rating CHEAL” value in assay [4] (setting [6]) was 4.0; in assay [4] (setting [7]) it was 3.0; in assay [4] (setting [8]), 9.0; in assay [4] (setting [9]) it was 9.0; in assay [4] (setting [10]) it was 9.0. Moreover, the “Preemergence herbicidal rating ORYSAT” value in assay [5] (setting [6]) is listed as 0.0; in assay [5] (setting [7]), 0.0; in assay [5] (setting [8]), 0.0; in assay [5] (setting [9]), 1.0; in assay [5] (setting [10]), 0.0.

In the case of `CCOC(=O)CN1C(=O)C(Cl)SC1=Nc1cc(-n2c(=O)cc(C(F)(F)F)n(C)c2=O)c(F)cc1Cl` (stereo not drawn) [Compound 126, Ethyl 5-chloro-2-{{2-chloro-5-[3,6-dihydro-3-methyl-2,6-dioxo-4-(trifluoromethyl)-1(2H)-pyrimidinyl]-4-fluorophenyl}imino}-4-oxo-3-thiazolidineacetate], the “herbicidal rating CASOB” value in assay [1] (rate 0.0156 kg/ha) stood at 0.0; in assay [1] (rate 0.0313 kg/ha), 0.0; in assay [1] (rate 0.0625 kg/ha), 2.0; in assay [1] (rate 0.1250 kg/ha), 4.0. Also, the “herbicidal rating CHEAL” value in assay [2] (rate 0.0156 kg/ha) came out at 4.0; in assay [2] (rate 0.0313 kg/ha) it was 4.0; in assay [2] (rate 0.0625 kg/ha), 4.0; in assay [2] (rate 0.1250 kg/ha), 9.0. Besides, the “herbicidal rating TRZAWR” value in assay [3] (rate 0.0156 kg/ha) was determined as 2.0; in assay [3] (rate 0.0313 kg/ha), 2.5; in assay [3] (rate 0.0625 kg/ha), 3.0; in assay [3] (rate 0.1250 kg/ha) it was 3.5. For the same compound, the “Preemergence herbicidal rating CHEAL” value in assay [4] (rate 0.0625 kg/ha), in assay [4] (rate 0.1250 kg/ha), in assay [4] (rate 0.2500 kg/ha) and in assay [4] (rate 0.5000 kg/ha) was 9.0 in each case. The “Preemergence herbicidal rating ORYSAT” value in assay [5] (rate 0.0625 kg/ha) stood at 0.0; in assay [5] (rate 0.1250 kg/ha) it was 0.0; in assay [5] (rate 0.2500 kg/ha), 0.0; in assay [5] (rate 0.5000 kg/ha), 3.0.

Consider `CCCN1C(=O)CSC1=Nc1cc(-n2c(=O)cc(C(F)(F)F)n(C)c2=O)c(F)cc1Cl` [Compound 171, 3-{4-Chloro-2-fluoro-5-[(4-oxo-3-propyl-2-thiazolidinylidene)amino]phenyl}-1-methyl-6-(trifluoromethyl)-2,4 (1H, 3H)-pyrimidinedione], for which the “Postemergence herbicidal rating CASOB” value in assay [1] (Rate 0.0156 kg/ha) turned out to be 2.0; in assay [1] (Rate 0.0313 kg/ha), 3.0. In addition, the “herbicidal rating CASOB” value in assay [1] (rate 0.0625 kg/ha) is 4.0. Also, the “Postemergence herbicidal rating CHEAL” value was found to be 7.0 in assay [2] (Rate 0.0156 kg/ha) and 9.0 in assay [2] (Rate 0.0313 kg/ha). For the same compound, the “herbicidal rating CHEAL” value in assay [2] (rate 0.0625 kg/ha) was found to be 9.0. The results for the “Postemergence herbicidal rating TRZAWR” value in assay [3] (Rate 0.0156 kg/ha) and in assay [3] (Rate 0.0313 kg/ha) were 4.0 and 5.0, respectively. The “herbicidal rating TRZAWR” value in assay [3] (rate 0.0625 kg/ha) amounted to 6.0. Also, the “Preemergence herbicidal rating CHEAL” value in assay [4] (0.0156 kg/ha), in assay [4] (0.0313 kg/ha), in assay [4] (0.0625 kg/ha), in assay [4] (0.1250 kg/ha) and in assay [4] (0.2500 kg/ha) was 9.0 in each case. The “Preemergence herbicidal rating ORYSAT” value in assay [5] (0.0156 kg/ha) is recorded as 2.0; in assay [5] (0.0313 kg/ha), 4.0; in assay [5] (0.0625 kg/ha), 5.0; in assay [5] (0.1250 kg/ha), 6.0; in assay [5] (0.2500 kg/ha), 8.0.

As for `COCCOC(=O)CN1C(=O)CSC1=Nc1cc(-n2c(=O)cc(C(F)(F)F)n(C)c2=O)c(F)cc1Cl` [Compound 107, 2-Methoxyethyl 2-{{2-chloro-5-[3,6-dihydro-3-methyl-2,6-dioxo-4-(trifluoromethyl)-1(2H)-pyrimidinyl]-4-fluorophenyl}imino}-4-oxo-3-thiazolidineacetate], the “herbicidal rating CASOB” value in assay [1] (rate 0.0158 kg/ha), in assay [1] (rate 0.0315 kg/ha) and in assay [1] (rate 0.0630 kg/ha) was 0.0 in each case. Also, the “herbicidal rating CHEAL” value in assay [2] (rate 0.0158 kg/ha) amounted to 2.0; in assay [2] (rate 0.0315 kg/ha), 2.0; in assay [2] (rate 0.0630 kg/ha), 1.0. Moreover, the “herbicidal rating TRZAWR” value stood at 2.0 in assay [3] (rate 0.0158 kg/ha), 3.0 in assay [3] (rate 0.0315 kg/ha) and 5.0 in assay [3] (rate 0.0630 kg/ha). The entries for the “Preemergence herbicidal rating CHEAL” value in assay [4] (rate 0.0625 kg/ha), in assay [4] (rate 0.1250 kg/ha) and in assay [4] (rate 0.2500 kg/ha) were 6.0, 9.0 and 9.0, respectively. For the same compound, the “Preemergence herbicidal rating ORYSAT” value in assay [5] (rate 0.0313 kg/ha) is 0.0; in assay [5] (rate 0.0625 kg/ha), 0.0; in assay [5] (rate 0.1250 kg/ha) it was 0.0; in assay [5] (rate 0.2500 kg/ha), 2.0.

Regarding `Cn1c(C(F)(F)F)cc(=O)n(-c2cc(N=C3SCC(=O)N3CC(F)(F)F)c(Cl)cc2F)c1=O` [Compound 163, 3-{4-Chloro-2-fluoro-5-{[4-oxo-3-(2,2,2-trifluoroethyl)-2-thiazolidinylidene]amino}phenyl}-1-methyl-6-(trifluoromethyl)-2,4(1H,3H)-pyrimidinedione], the “herbicidal rating CASOB” value in assay [1] (rate 0.0156 kg/ha) turned out to be 0.0; in assay [1] (rate 0.0313 kg/ha) it was 0.0; in assay [1] (rate 0.0625 kg/ha), 3.0. Besides, the “herbicidal rating CHEAL” value in assay [2] (rate 0.0156 kg/ha), in assay [2] (rate 0.0313 kg/ha) and in assay [2] (rate 0.0625 kg/ha) was 9.0 in each case. Besides, the “herbicidal rating TRZAWR” value is given as 3.5 in assay [3] (rate 0.0156 kg/ha), 4.0 in assay [3] (rate 0.0313 kg/ha) and 4.5 in assay [3] (rate 0.0625 kg/ha). For the same compound, the “Preemergence herbicidal rating CHEAL” value in assay [4] (0.0156 kg/ha), in assay [4] (0.0313 kg/ha), in assay [4] (0.0625 kg/ha), in assay [4] (0.1250 kg/ha) and in assay [4] (0.2500 kg/ha) was 9.0 throughout. Further, the “Preemergence herbicidal rating ORYSAT” value in assay [5] (0.0156 kg/ha) worked out at 1.0; in assay [5] (0.0313 kg/ha) it was 3.0; in assay [5] (0.0625 kg/ha), 5.0; in assay [5] (0.1250 kg/ha), 7.0; in assay [5] (0.2500 kg/ha), 8.0.

Take `C#CC(C)N1C(=O)CSC1=Nc1cc(-n2c(=O)cc(C(F)(F)F)n(C)c2=O)c(F)cc1Cl` (stereo not drawn) [Compound 165, 3-{4-Chloro-2-fluoro-5-{[3-(1-methyl-2-propynyl)-4-oxo-2-thiazolidinylidene]amino}phenyl}-1-methyl-6-(trifluoromethyl)-2,4(1H,3H)-pyrimidinedione]: the “herbicidal rating CASOB” value was 0.0 in assay [1] (rate 0.0156 kg/ha), 2.0 in assay [1] (rate 0.0313 kg/ha), 3.0 in assay [1] (rate 0.0625 kg/ha) and 3.0 in assay [1] (rate 0.1250 kg/ha). In addition, the “herbicidal rating CHEAL” value turned out to be 5.0 in assay [2] (rate 0.0156 kg/ha), 6.0 in assay [2] (rate 0.0313 kg/ha), 7.0 in assay [2] (rate 0.0625 kg/ha) and 9.0 in assay [2] (rate 0.1250 kg/ha). The “herbicidal rating TRZAWR” value is listed as 3.0 in assay [3] (rate 0.0156 kg/ha), 3.0 in assay [3] (rate 0.0313 kg/ha), 4.0 in assay [3] (rate 0.0625 kg/ha) and 5.0 in assay [3] (rate 0.1250 kg/ha). The “Preemergence herbicidal rating CHEAL” value in assay [4] (0.0156 kg/ha) is on record as 4.0; in assay [4] (0.0313 kg/ha), 9.0; in assay [4] (0.0625 kg/ha), 9.0; in assay [4] (0.1250 kg/ha) it was 9.0; in assay [4] (0.2500 kg/ha) it was 9.0; in assay [4] (0.5000 kg/ha) it was 9.0. The “Preemergence herbicidal rating ORYSAT” value in assay [5] (0.0156 kg/ha) stood at 0.0; in assay [5] (0.0313 kg/ha) it was 0.0; in assay [5] (0.0625 kg/ha), 0.0; in assay [5] (0.1250 kg/ha), 1.0; in assay [5] (0.2500 kg/ha), 3.0; in assay [5] (0.5000 kg/ha), 5.0.
